Source: patent publication US8273787B2, “Activated cytotoxic compounds for attachment to targeting molecules for the treatment of mammalian disease conditions” (Onconova Therapeutics, Inc, priority 2006, dated 2012)

What was measured:
[1] = system: U87; assay: 96 hour growth inhibition, U87; type: cell-based; details: Homo sapiens, U-87 MG, U87, GLIOBLASTOMA
Description: (§1) Two compounds were selected from our library of cytotoxic molecules for immunoconjugation since they both have IC50 values in the low nanomolar range. Various tumor cell lines (ATCC) were treated for 96 hours in the presence of increasing concentrations of each compound and the total number of viable cells remaining was determined after 96 hours of exposure. The IC50 value was determined to be the amount of drug required to inhibit the growth of each cell line 50% as compared to vehicle treated cells.

[2] = system: A549; assay: 96 hour growth inhibition, A549; type: cell-based; details: Homo sapiens, A549, NSCLC
Description: as §1

[3] = system: Raji; assay: 96 hour growth inhibition, Raji; type: cell-based; details: Homo sapiens, Burkitt's Lymphoma (B-cell)
Description: as §1

[4] = system: CEM; assay: 96 hour growth inhibition, CEM; type: cell-based; details: Homo sapiens, CCRF-CEM
Description: as §1
(§2) Another extremely important predictive factor is the ability of these compounds to kill cell lines overexpressing multiple drug resistance (MDR) genes. A very high percentage of cancer patient relapses are due to some form of resistance to traditional chemotherapy. Of these patients, the vast majority express one or more of the MDR genes within the ABC transport gene family. Overexpression of these genes increases the efflux of compounds that are recognized by these pumping systems. […] Onconova's benzyl styryl sulfone compounds are not recognized by the MDR-1 gene and therefore provide an advantage over other highly toxic drugs including but not limited to the taxanes, doxorubicin, etoposide, and vinca-alkaloids. […] MES-SA/Dx5, uterine sarcoma, and […], ovarian, are both classical multidrug resistant cell lines that are cross resistant to the taxanes and anthracyclins. Harker, W G, and Sikic, B. I., Multidrug (Pleiotropic) Resistance In Doxorubicin-Selected Variants Of The Human Sarcoma Cell Line MES-SA, Cancer Res. 45(9):4091-6 (1985). MES-SA/Dx5 and Apr. […] Fujimori, A., et al., Mutation At The Catalytic Site Of Topoisomerase I In CEM/C2, A Human Leukemia Cell Line Resistant To Camptothecin, Cancer Res. 55(6): 1339-46 (1995). ON 01500 and ON 013100, for example, are both extremely active against these resistant cell lines.

[5] = system: CEM/C2 (RESISTANT); assay: growth inhibition, CEM/C2 (resistant); type: cell-based, Human; details: for RSIST-ANCE: CEM/C2 (RESISTANT) versus CEM (PARENTAL); for IC50: Homo sapiens, CEM/C2 (RESISTANT), non classical multiple drug resistant
Description: as §1, §2

[6] = system: SK-MEL-28; assay: 96 hour growth inhibition, SK-MEL-28; type: cell-based; details: Homo sapiens, SK-MEL-28, MELANOMA
Description: as §1

[7] = system: MES-SA (PARENTAL); assay: growth inhibition, MES-SA (parental); type: cell-based; details: Homo sapiens, uterine sarcoma
Description: as §1, §2

[8] = system: BT474; assay: growth inhibition, breast carcinoma cell line BT474; type: cell-based; details: Homo sapiens, BT-474; BT474, BREAST (ER+), HER2 ++++
Description: as §1
(§3) Certain embodiments of immunoconjugates described herein are targeted to HER2 expressing breast cancer cells. Certain embodiments of immunoconjugates described herein are targeted to multiple myeloma (MM) cell lines expressing the surface antigens CD38 and or CD138. The IC50 value of ON 015100 and ON 013100 was determined for a number of breast cell lines as well as a panel of multiple myeloma cell lines expressing varying levels of each antigen and the data are shown in table (4) and table (5), respectively. […] Two cell lines, SK-BR-3 and BT474, known to express very high levels of HER2 are more than 2 fold more sensitive to ON 013100 as compared to the cell lines which express lower levels of HER2. Marx C., et al., Validated High-Throughput Screening of Drug-Like Small Molecules for Inhibitors of ErbB2 Transcription. Assay Drug Dev. […]

[9] = system: Daudi; assay: 96 hour growth inhibition, Daudi; type: cell-based; details: Homo sapiens, Burkitt's Lymphoma (B-cell)
Description: as §1

[10] = system: 2008 (PARENTAL); assay: growth inhibition, 2008 (parental); type: cell-based; details: ovarian
Description: as §1, §2

[11] = system: RF1; assay: 96 hour growth inhibition, RF1; type: cell-based; details: RF1, GASTRIC
Description: as §1

[12] = system: H157; assay: 96 hour growth inhibition, H157; type: cell-based; details: Homo sapiens, NCI-H157, H157, NSCLC
Description: as §1

[13] = system: K562; assay: 96 hour growth inhibition, K562; type: cell-based; details: Homo sapiens, K562, CML
Description: as §1

[14] = system: SK-BR-3; assay: growth inhibition, breast carcinoma cell line SK-BR-3; type: cell-based; details: Homo sapiens; SK-BR-3, BREAST (ER−), HER2 ++++
Description: as §1, §3

[15] = system: OV-CAR-3; assay: 96 hour growth inhibition, OV-CAR-3; type: cell-based; details: Homo sapiens, OVCAR-3, OV-CAR-3, OVARIAN
Description: as §1

[16] = system: RPMI 8266; assay: growth inhibition, multiple myeloma cell line RPMI 8266; type: cell-based; details: Homo sapiens, RPMI8266; RPMI 8266, multiple myeloma, CD38 + CD138 + CD20 −
Description: as §1
Pellat-Deceunynk, C., et al., Human Myeloma Cell Lines As A Tool For Studying The Biology Of Multiple Myeloma: A Reappraisal 18 Years After, Blood 86(10):4001-2 (1995); Gooding, R. P., et al., Phenotypic And Molecular Analysis Of Six Human Cell Lines Derived From Patients With Plasma Cell Dyscrasia, British Journal of Haematology 106:669-688 (1999).

[17] = system: HCT-116; assay: 96 hour growth inhibition, HCT-116; type: cell-based; details: Homo sapiens, HCT-116, COLO-RECTAL
Description: as §1

[18] = system: Namalwa; assay: 96 hour growth inhibition, Namalwa; type: cell-based; details: Burkitt's Lymphoma (B-cell)
Description: as §1

[19] = system: N417; assay: 96 hour growth inhibition, N417; type: cell-based; details: N417, SCLC
Description: as §1

[20] = system: RF48; assay: 96 hour growth inhibition, RF48; type: cell-based; details: RF48, GASTRIC
Description: as §1

[21] = system: H187; assay: 96 hour growth inhibition, H187; type: cell-based; details: Homo sapiens, NCI-H187, H187, SCLC
Description: as §1

[22] = system: HCT-15; assay: 96 hour growth inhibition, HCT-15; type: cell-based; details: Homo sapiens, HCT-15, COLO-RECTAL
Description: as §1

[23] = system: Sk-OV-3; assay: 96 hour growth inhibition, Sk-OV-3; type: cell-based; details: Homo sapiens, Sk-OV-3, OVARIAN
Description: as §1

Row | Compound | IC50 [1] [nM] | IC50 [2] [nM] | IC50 [3] [nM] | IC50 ([4]; CEM (PARENTAL)) [nM] | IC50 ([4]; CEM, […], 96 hours) [nM] | RSIST-ANCE [5] | IC50 [5] [nM] | IC50 [6] [nM] | IC50 [7] [nM] | IC50 [8] [nM] | IC50 [9] [nM] | IC50 [10] [nM] | IC50 [11] [nM] | IC50 [12] [nM] | IC50 [13] [nM] | IC50 [14] [nM] | IC50 [15] [nM] | IC50 [16] [nM] | IC50 [17] [nM] | IC50 [18] [nM] | also measured
1 | COc1cc(OC)c(/C=C/S(=O)(=O)Cc2ccc(OC)c(N)c2)c(OC)c1 [ON 01500, (E)-2,4,6-trimethoxystyryl-4-methoxy-3-aminobenzylsulfone] | 3 | 3 | 2 | 10 | 10 | 1 | 10 | 5 | 4 | 2 | 3 | 3 | 2 | 4 | 2.5 | 2 | 3 | 3 | 6 | 5 | IC50 [19]: 3 nM; IC50 [20]: 1 nM; IC50 [21]: 4 nM; IC50 [22]: 5 nM; IC50 [23]: 3 nM
2 | COc1cc(OC)c(/C=C/S(=O)(=O)Cc2ccc(OC)c(O)c2)c(OC)c1 [ON 013100, (E)-5-((2,4,6-trimethoxystyrylsulfonyl)methyl)-2-methoxyphenol] | 7 | 10 | 1 | 4 | 4 | 0.75 | 3 | 7 | 5 | 3 | 3 | 5 | 3 | 7 | 4 | 4 | 30 | 5 | 6 | 3 | IC50 [19]: 3 nM; IC50 [20]: 1 nM; IC50 [21]: 3 nM; IC50 [22]: 7 nM; IC50 [23]: 4 nM
